Results: patent US20160074480A1, “INNOVATIVE METHODS OF TREATMENTING TUBERCULOSIS” (priority 2015, published 2016)
Like-named read-outs stand apart in the source and are kept apart here.

Experiments:
[1] = low sustained systemic release; cited from earlier work
[2] = in vivo; cited from earlier work
[3] = system: Mycobacterium tuberculosis bacteria in the monocytes; conditions: cited from earlier work
[4] = system: Mycobacterium tuberculosis outside cells; conditions: cited from earlier work
[5] = cited from earlier work
[6] = cited from earlier work; remark: listed apart in the source
[7] = system: mycobacterium tuberculosis; assay: Breast cancer patient with pulmonary TB given high dose Vitamin C; format: in vivo, human
Excerpt: In the presence of above reductants, ferrous ions are produced by reduction of ferric ions (#2). One reductant known to drive the Fenton reaction is Vitamin C, also known as ascorbic acid. As a pro-oxidant, vitamin C can drive the Fenton reaction by reducing ferric ions to ferrous ions as shown in the above formula and FIG. 3. Most iron within the cell is bound within porphyrins and proteins, as ferric ions that are sparingly soluble and ferrous ions are very reactive as well as more soluble. To examine the role of iron concentration in vitamin C bactericidal activity, the concentrations of bound iron and reduced and oxidized free iron were measured in tuberculosis cultures treated with vitamin C. […] This increase in free iron levels was also the dose which peaked at day three. […] We treated a person has traveled to Southeast Asia and was diagnosed with left breast cancer. It was an early case with discrete lymph node metastasis. They have cough with blood tinged sputum, night sweats, and weight loss. […] By the time we made the TB diagnosis they were treated with high dose Vitamin C 10 to 25 grams in 500 ml normal saline every day for a total of 10 doses as an adjuvant therapy for cancer. They underwent local injection of anti-breast cancer chemotherapy therapeutic agents with insulin and local heat application with magnetic heat waves and hyperbaric therapy using soft air HBO chamber.
This person has traveled to Southeast Asia and was diagnosed with left breast cancer. It was an early case with discrete lymph node metastasis. They have cough with blood tinged sputum, night sweats, and weight loss. […] By the time we made the TB diagnosis they were treated with high dose Vitamin C 10 to 25 grams in 500 ml normal saline every day for a total of 10 doses as an adjuvant therapy for cancer. They underwent local injection of anti-breast cancer chemotherapy therapeutic agents with insulin and local heat application with magnetic heat waves and hyperbaric therapy using soft air HBO chamber.
After the lab came with mycobacterium tuberculosis, we wanted to see why the cough has gone with no sputum. […] We sent the sputum again, and came negative for mycobacterium tuberculosis after culture. This also made us to diagnose that the lesion in the lungs was not a metastatic breast cancer. The patient was treated with chemotherapy, local injection of breast mass and lymph nodes with high dose Vitamin C chemotherapy therapeutic agents. After completion of therapy, they were sent to surgery for the removal of the remaining lesion mass in the breast which had shrunk considerably, and axillary lymph node resection. They were seen 3 months after surgery. Their chest X ray was negative and so also sputum M. tuberculosis bacteria. They were free of cancer and tuberculosis.

[8] = intravenous, doses from 5 to 50 grams or higher per day
tuberculosis cultures = conditions: compared to the untreated cultures after three days; cited from earlier work
tuberculosis bacteria = conditions: treated for 3 days, versus untreated sample; cited from earlier work
M. tuberculosis [9] = conditions: flow cytometry; cited from earlier work
M. tuberculosis [10] = conditions: after 9 days; cited from earlier work
[11] = system: plasma C reactive protein (CRP); conditions: smokers; cited from earlier work
creatine kinase = conditions: compared with the placebo group; cited from earlier work
endothelial dysfunction = conditions: 2,000 mg/day for two weeks; cited from earlier work
[12] = cited from earlier work; remark: listed apart in the source
[13] = system: Methicillin resistant staphylococcus aureus; assay: Treatment of MRSA infected patients; conditions: with broad spectrum antibiotics, insulin induced hypoglycemia and hyperbaric therapy
[14] = system: radiation resistant breast cancer cells; conditions: cells pre-loaded with iron after incubation with holotransferrin, cited from earlier work
malaria = conditions: 3 grams (about 50 mg/kg) over a 3 to 5 day period; cited from earlier work
tuberculosis infection = conditions: cited from earlier work; for effect on tuberculosis infection: alone at 20 mg/kg per day; for TB lesion in the spleen compared with pyrazinamide alone / bacteria in the lungs compared with pyrazinamide alone: simultaneous administration with pyrazinamide
TB bacteria [15] = conditions: cited from earlier work
pathogenic organism's = conditions: cited from earlier work
[16] = at atmospheric pressure; cited from earlier work
TB proteasome = TB proteasome (Mycobacterium tuberculosis, UniProt P9WHT9); conditions: Lin et al 2009; cited from earlier work
TB bacteria [17] = conditions: cited from earlier work; remark: listed apart in the source
monkey and human cells = conditions: cited from earlier work
M. tuberculosis [18] = conditions: cited from earlier work
[19] = target: proprotein convertase subtilisin-kexin type 9 (PCSK9) (Homo sapiens, UniProt Q8NBP7); conditions: parenteral administration; cited from earlier work
[20] = 150 mg/kg per day, one month of treatment

Sequence of TB proteasome (P9WHT9 58-291): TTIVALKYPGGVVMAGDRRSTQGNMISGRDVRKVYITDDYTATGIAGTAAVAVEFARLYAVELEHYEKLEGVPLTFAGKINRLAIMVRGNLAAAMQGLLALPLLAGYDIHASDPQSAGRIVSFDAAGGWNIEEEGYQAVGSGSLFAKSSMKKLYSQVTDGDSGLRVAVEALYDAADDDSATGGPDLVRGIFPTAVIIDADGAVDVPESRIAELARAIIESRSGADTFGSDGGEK
Sequence of TB proteasome (P9WHU1 whole entry partner): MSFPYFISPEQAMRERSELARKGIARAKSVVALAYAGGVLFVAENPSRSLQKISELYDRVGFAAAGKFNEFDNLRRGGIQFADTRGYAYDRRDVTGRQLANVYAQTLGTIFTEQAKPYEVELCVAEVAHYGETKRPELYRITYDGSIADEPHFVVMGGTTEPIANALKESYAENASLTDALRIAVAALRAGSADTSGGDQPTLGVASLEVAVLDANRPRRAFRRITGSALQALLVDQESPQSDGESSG

Molecule: O=[N+]([O-])c1ccc(O)c([N+](=O)[O-])c1 [DNP, 2,4, dinitrophenol]
- increase of the therapeutic window [1]: more than 500 fold

Molecule: CC[C@@H](CO)NCCN[C@@H](CC)CO [Ethambutol]
- adverse effects stated in the text [2]: risk of developing optic neuritis

Molecule: CCc1cc(C(N)=S)ccn1 [Ethionamide, 2-ethylthioiso-nicotinamide]
- adverse effects stated in the text [2]: neurotoxicity and fatal hepatotoxicity

Molecule: O=C1[C@H](CC[C@H](O)c2ccc(F)cc2)[C@@H](c2ccc(O)cc2)N1c1ccc(F)cc1 [Ezetimibe, (3R,4S)-1-(4-fluorophenyl)-3-[(3S)-3-(4-fluorophenyl)-3-hydroxypropyl]-4-(4-hydroxyphenyl) zetidin-2-one]
- survival and proliferation of Mycobacterium tuberculosis in the monocytes [3]: significantly inhibiting the survival and proliferation
- killing of Mycobacterium tuberculosis outside cells [4]: directly killing

Molecule: CO[C@H]1/C=C/O[C@@]2(C)Oc3c(C)c(O)c4c(O)c(c(/C=N/N5CCN(C)CC5)c(O)c4c3C2=O)NC(=O)/C(C)=C\C=C\[C@H](C)[C@H](O)[C@@H](C)[C@@H](O)[C@@H](C)[C@H](OC(C)=O)[C@@H]1C [Rifampin, Rifampicin]
- Plasma Concentrations (mean±standard deviation) ([5]; IV 300 mg, 30 min): 8.9 ± 2.9 µg/mL
- Plasma Concentrations (mean±standard deviation) ([5]; IV 300 mg, 1 hr to 2 hr): 4.9 ± 1.3 µg/mL
- Plasma Concentrations (mean±standard deviation) ([5]; IV 300 mg, 4 hr): 2.5 ± 1.0 µg/mL
- Plasma Concentrations (mean±standard deviation) ([5]; IV 300 mg, 8 hr): 1 ± 0.6 µg/mL
- Plasma Concentrations (mean±standard deviation) ([5]; IV 300 mg, 12 hr): <0.4 µg/mL
- Plasma Concentrations (mean±standard deviation) ([5]; IV 600 mg, 30 min): 17.4 ± 5.1 µg/mL
- Plasma Concentrations (mean±standard deviation) ([5]; IV 600 mg, 1 hr to 2 hr): 11.7 ± 2.8 µg/mL
- Plasma Concentrations (mean±standard deviation) ([5]; IV 600 mg, 4 hr): 6.4 ± 1.7 µg/mL
- Plasma Concentrations (mean±standard deviation) ([5]; IV 600 mg, 8 hr): 3.5 ± 1.4 µg/mL
- Plasma Concentrations (mean±standard deviation) ([5]; IV 600 mg, 12 hr): 1.2 µg/mL
- ADVERSE EVENT/CONTRAINDICATION [2]: Hepatitis, GI reactions
- concentration of the drug in the blood plasma ([6]; after increasing the dose): higher than expected
- adverse effects ([6]; increased dose versus standard dose): did not experience adverse effects

Molecule: CC(=O)Nc1ccc(/C=N/NC(N)=S)cc1 [Thiacetazone]
- ADVERSE EVENT/CONTRAINDICATION [2]: Severe skin rash among HIV +ve (not recommended)

Molecule: O=C1O[C@H]([C@@H](O)CO)C(O)=C1O [Vitamin C, L-ascorbic acid]
- outcome of tuberculosis ([7]; 10 to 25 grams IV every day, total of 10 doses): completely cured of tuberculosis
- cough ([7]; by second week): completely disappeared
- sputum for mycobacterium tuberculosis after culture ([7]; repeat sputum after treatment): negative
- chest X ray ([7]; third week): disappearance of the lesion
- safety and tolerability [8]: safe and well-tolerated
- extracellular free iron concentrations (tuberculosis cultures): nearly four-fold higher
- intracellular levels of ferrous ions (tuberculosis bacteria): up to ten times higher
- increase in total ROS (M. tuberculosis [9]): Up to threefold
- DNA damage relative to the untreated culture or culture treated with Vitamin E (M. tuberculosis [10]): tenfold higher
- ROS induced DNA damage (M. tuberculosis [10]): 17-25%
- reduction in plasma C reactive protein (CRP) concentrations [11]: 24%
- release of creatine kinase, an indicator of muscle damage (creatine kinase): inhibits the release of creatine kinase
- endothelial dysfunction (endothelial dysfunction): reversed endothelial dysfunction
- peak plasma concentration ([12]; IV infusion up to 50 grams, cancer patients): 13.4 mM
- peak plasma concentrations ([12]; maximum tolerated dose of 3 g every 4 hours taken orally): 0.22 mM
- outcome of MRSA infection [13]: complete elimination of the infection

Molecule: C[C@@H]1CC[C@H]2[C@@H](C)C(=O)O[C@@H]3O[C@@]4(C)CC[C@@H]1[C@]32OO4 [artemisinin]
- cancer cell killing ([14]; 8 hours): 75%
- cancer cell killing ([14]; within 24 hours): ~100%
- resistance and toxicity (malaria): no resistance nor did toxicity

Molecule: CC(=O)Oc1ccccc1C(=O)O [aspirin, Acetylsalicylic acid]
- effect on tuberculosis infection (tuberculosis infection): little effect
- TB lesion in the spleen compared with pyrazinamide alone (tuberculosis infection): further decrease
- bacteria in the lungs compared with pyrazinamide alone (tuberculosis infection): statistically significant fewer bacteria

Molecule: N[C@@H](CS)C(=O)O [cysteine]
- intracellular levels of ferrous ions (tuberculosis bacteria): up to ten times higher

Molecule: CC(C)Cc1ccc(C(C)C(=O)O)cc1 (stereo not drawn) [ibuprofen]
- effect on tuberculosis infection (tuberculosis infection): little effect
- TB lesion in the spleen compared with pyrazinamide alone (tuberculosis infection): further decrease
- bacteria in the lungs compared with pyrazinamide alone (tuberculosis infection): lower unit counts
- number of TB bacteria detected in the organs (TB bacteria [15]; mouse, in vivo): reduced the number of TB bacteria detected in the organs
- survival (TB bacteria [15]; versus mice not treated with ibuprofen): lived longer

Molecule: O=[O+][O-] [ozone]
- molecules of chlorine equal to one molecule of ozone (pathogenic organism's): 3000-10,000 molecules
- speed of killing pathogenic organisms (pathogenic organism's; compared with chlorine): 3500 times faster
- time to break down from O3 to O2+O1 [16]: ≤ 20 min

Molecule: NC(=O)c1cnccn1 [pyrazinamide, Pyrazinamide]
- reduction in the lung compared with the control (tuberculosis infection; [20]): about 1.5 log10 cfu
- reduction in the spleen compared with the control (tuberculosis infection; [20]): ~2 log10 cfu
- ADVERSE EVENT/CONTRAINDICATION [2]: Hepatitis

Molecule: oxathiazol-2-one
- inhibition of the TB proteasome relative to the human proteasome (TB proteasome): about 1,000 times
- effect on TB bacteria (TB bacteria [17]): killed the TB bacteria
- harm to mammalian cells (monkey and human cells): did not appear to harm mammalian cells

B1: IFN-Y^− 1b: recombinant interferon gamma 1b, given nebulized (protein, UniProt P01579 24-161, looked up)
Interferon gamma: QDPYVKEAENLKKYFNAGHSDVADNGTLFLGILKNWKEESDRKIMQSQIVSFYFKLFKNFKDDQSIQKSVETIKEDMNVKFFNSNKKKRDDFEKLTNYSVTDLNVQRKAIHELIQVMAELSPAAKTGKRKRSQMLFRG
- IFN gamma signaling (M. tuberculosis [18]; 10 TB patients, one month of nebulized therapy): enhanced IFN-Y^− signaling
- clearance of M. tuberculosis bacteria from the sputum (M. tuberculosis [18]; nebulized, added to DOTS, randomized controlled trial): more rapid clearance
- sputum (M. tuberculosis [18]; open-label, nebulized, 5 patients with MDR-TB, after 1 month): clearing of the sputum

B2: evolocumab: human monoclonal antibody that inhibits PCSK9 (antibody, chains of the INN, looked up, V domains shown)
VH: EVQLVQSGAEVKKPGASVKVSCKASGYTLTSYGISWVRQAPGQGLEWMGWVSFYNGNTNYAQKLQGRGTMTTDPSTSTAYMELRSLRSDDTAVYYCARGYGMDVWGQGTTVTVSS
VL: ESALTQPASVSGSPGQSITISCTGTSSDVGGYNSVSWYQQHPGKAPKLMIYEVSNRPSGVSNRFSGSKSGNTASLTISGLQAEDEADYYCNSYTSTSMVFGGGTKLTVL
- reduction in LDL cholesterol levels [19]: 60%
